In patent US7037656B2, “Methods and compositions for identifying ligands for nuclear receptors” (priority 2000, dated 2006) one finds β-galactosidase activity data, which are given here for one compound.

The structures appear in SMILES notation.

What all share (test): Yeast 6x EcRE-lacZ β-galactosidase transactivation assay
Experiment [1] concerns the target T1, Dm ΔN EcR + Dm ΔA/B USP + GRIP1 (Drosophila melanogaster, UniProt P34021).
T1 construct: ubiquitin (human, 76 aa) (N, cleaved yes); expressed in transfected cells
Format: cell-based. The following applies: RH 5992 10 μM, 4 hours, DMSO control 0.340. As to the method: Briefly, yeast cells are cultured in 5 mL of YPD liquid medium overnight at 30° C. The cell culture was diluted 1:20 in YPD media and further grown until cell density reached an O.D of 0.6. at OD600. The cells were pelleted by centrifugation and washed with 10 mL of TE+0.1M lithium acetate. Cells are then resuspended in 10 mL TE+0.1M lithium acetate and incubated at 30° C. for 1 hour. Cells are collected and resuspended in 0.5 mL of TE+ 0.1M lithium acetate. Aliquots of cells (50 μL), were incubated for 15 minutes at 30° C. with 1–2 μg plasmid DNA in the presence of 5 μg of denatured salmon sperm DNA as DNA carrier. In the case of co-transformation, the indicated plasmids were added simultaneously. 50% polyethyleneglycol of molecular weight 4000, diluted in TE, was added to a final concentration of 35%. DMSO was added to the transformation solution simultaneously to a final concentration 3%. The samples were mixed well by vortexing and incubated for an additional 30 minutes at 30° C. The cell mixture is then heated for 15 minutes at 42° C. Cells were then collected and plated onto appropriate yeast selective media. Transformants of 4 plasmids are selected on the complete media without tryptophan, uracil, leucine and histidine.
The yeast cells grown overnight in selective liquid media at 30° C. were diluted in prewarmed liquid selective media to 0.1 at OD600 (ODculture). 100 μl of the cell culture was spiked to each well of a.96-well microtiter plate. Ligand (2 μl diluted in DMSO) was added to each well giving a final concentration of DMSO of 2%. As a control, 2 μl of DMSO were also added to additional test wells. The final concentration of the tested compounds in the media is 10 μM. The cells were incubated in the presence of ligand in a shaker at 30° C. After 4 hours of incubation, 100 μl of 2× “Z” Sarcosine-ONPG buffer (120 mM Na2HPO4, 80 mM NaH2PO4, 20 mM KCl, 2 mM MgSO4, 100 mM beta-mercaptoethanol (Sigma), pH 7.0, 0.4% lauroyl sarcosine (Sigma), 4 mg/mL ONPG (Diagnostic Chemicals limited) was added to each well and the plate was further incubated at 37° C. The 2× “Z” Sarcosine-ONPG buffer is freshly prepared or stored at −20° C. prior to use. After incubation at 37° C. for 1 hour. The reaction was stopped by adding 100 μL of quenching solution 0.5 M Na2CO3 and OD405 (ODreaction) and beta-galactosidase activity was measured in a micro plate reader (Biotek) at a wave length of 405–450 nanometers. The effect of copper on enhancement of the transactivation response mediated by the ligands tested was studied by adding CuSO4 to the media to a final concentration of 10 μM.
Using the transformation method set forth above, yeast were co-transformed with a reporter gene as shown in FIG. 2 and the expression vector encoding the full-length D. melanogaster ecdysone receptor, DmEcR (FIG. 3A) in the presence or absence of the Dm EcR heterodimer partner, DmUSP (FIG. 4A). Transformed cells were incubated with DMSO alone as a control or with a proprietary ecdysone receptor ligand (Rohm & Haas compound RH5992—tebufenozide) at final concentration 10 μM for 4 hours. The samples were then assayed for β-galactosidase activity as described above. […] As the N-terminal portion of the Dm EcR receptor is reported to play a role in ligand independent transactivation, an expression vector containing an N-terminal deletion in the EcR was constructed (see FIG. 3B) and assessed in the β-galactosidase assays described above. […] Restoration of ligand dependent transactivation was observed only when the DmΔN EcR, DmUSP and co-activator GRIP1 were coexpressed. See Table I. The data obtained indicate that the efficiency of ligand-dependent transactivation of the ecdysone receptor requires both heterodimer formation between EcR and USP, and proper interaction with co-activator GRIP1. […]

In experiment [2] the target is T2, Aa ΔA/B EcR + RXRγ + GRIP1 (Aedes aegypti, UniProt P49880).
T2 construct: ubiquitin (human, 76 aa) (N, cleaved yes); expressed in transfected cells
Format: cell-based, Aedes aegypti; mouse. Conditions: RH 5992 10 μM, 4 hours, DMSO control 0.496. As for the experimental part:
(§1) The human RXR α (Genbank accession number X52773), mouse RXR β (Genbank accession number X66224) or mouse RXR γ (Genebank accession number X66225) subtypes were expressed in yeast-E. coli multicopy 2μ expression plasmids under regulation of CUP1 promoter with the LEU2 selective marker (1).
(§2) Briefly, yeast cells are cultured in 5 mL of YPD liquid medium overnight at 30° C. The cell culture was diluted 1:20 in YPD media and further grown until cell density reached an O.D of 0.6. at OD600. The cells were pelleted by centrifugation and washed with 10 mL of TE+0.1M lithium acetate. Cells are then resuspended in 10 mL TE+0.1M lithium acetate and incubated at 30° C. for 1 hour. Cells are collected and resuspended in 0.5 mL of TE+ 0.1M lithium acetate. […]
(§3) Using the transformation method described above, yeast were co-transformed with a reporter gene as shown in FIG. 2 and the expression vector encoding the full-length Aedes aegypti ecdysone receptor, Aa EcR (FIG. 7A) in the presence or absence of the Aa EcR heterodimer partner, Aa USP (a or b form, FIGS. 8A and 8B respectively). […] As the N-terminal portion of the AaEcR receptor is reported to play a role in ligand independent transactivation, an expression vector containing an N-terminal deletion in the Aa EcR was constructed (see FIG. 7B) and assessed in the β-galactosidase assays described above. […]

Experiment [3] has as its system Aa ΔA/B EcR + RXRβ + GRIP1. Format: cell-based, Aedes aegypti; mouse. The following applies: RH 5992 10 μM, 4 hours, DMSO control 0.231. As for the experimental part:
as §1, §2, §3

A further experiment deals with T3, Dm ΔN EcR + RXRγ + GRIP1 (Drosophila melanogaster, UniProt P34021).
T3 construct: ubiquitin (human, 76 aa) (N, cleaved yes); expressed in transfected cells
Format: cell-based, Drosophila melanogaster; mouse. The following applies: RH 5992 10 μM, 4 hours, DMSO control 0.364. As to the method:
as §1, §2
Using the transformation method set forth above, yeast were co-transformed with a reporter gene as shown in FIG. 2 and the expression vector encoding the full-length D. melanogaster ecdysone receptor, DmEcR (FIG. 3A) in the presence or absence of the Dm EcR heterodimer partner, DmUSP (FIG. 4A). […] As the N-terminal portion of the Dm EcR receptor is reported to play a role in ligand independent transactivation, an expression vector containing an N-terminal deletion in the EcR was constructed (see FIG. 3B) and assessed in the β-galactosidase assays described above. […]

T1 sequence (P34021 221-878, stated change not applied): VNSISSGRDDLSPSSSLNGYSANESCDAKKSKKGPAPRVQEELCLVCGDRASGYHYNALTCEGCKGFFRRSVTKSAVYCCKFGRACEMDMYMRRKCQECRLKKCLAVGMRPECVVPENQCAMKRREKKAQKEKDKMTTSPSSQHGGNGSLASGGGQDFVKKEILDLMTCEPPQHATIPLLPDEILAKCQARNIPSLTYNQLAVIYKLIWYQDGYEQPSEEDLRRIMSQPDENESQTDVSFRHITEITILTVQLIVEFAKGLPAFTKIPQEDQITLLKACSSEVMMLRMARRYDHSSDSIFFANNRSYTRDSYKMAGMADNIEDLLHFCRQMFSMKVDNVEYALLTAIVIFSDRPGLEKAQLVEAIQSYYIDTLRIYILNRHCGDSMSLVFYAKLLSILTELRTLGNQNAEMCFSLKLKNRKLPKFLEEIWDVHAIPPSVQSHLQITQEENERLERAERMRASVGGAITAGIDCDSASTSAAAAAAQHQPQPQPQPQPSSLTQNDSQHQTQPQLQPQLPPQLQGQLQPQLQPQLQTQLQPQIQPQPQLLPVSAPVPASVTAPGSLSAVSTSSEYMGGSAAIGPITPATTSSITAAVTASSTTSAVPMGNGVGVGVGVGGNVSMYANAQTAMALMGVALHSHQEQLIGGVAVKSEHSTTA
T1 sequence (P20153 with tags, fused parts or gaps partner): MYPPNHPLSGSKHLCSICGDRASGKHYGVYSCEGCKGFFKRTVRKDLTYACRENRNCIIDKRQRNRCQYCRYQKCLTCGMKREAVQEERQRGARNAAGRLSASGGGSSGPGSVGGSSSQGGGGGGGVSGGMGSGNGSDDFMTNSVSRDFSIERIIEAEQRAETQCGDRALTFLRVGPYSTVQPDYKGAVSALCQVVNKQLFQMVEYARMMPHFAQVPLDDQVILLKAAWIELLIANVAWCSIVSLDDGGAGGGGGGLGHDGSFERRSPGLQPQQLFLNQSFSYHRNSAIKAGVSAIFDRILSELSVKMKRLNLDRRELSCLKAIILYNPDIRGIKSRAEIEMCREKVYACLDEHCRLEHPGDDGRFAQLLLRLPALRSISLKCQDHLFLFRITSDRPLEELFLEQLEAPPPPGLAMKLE
T3 sequence (P34021 221-878 limits assumed, stated change not applied): as the sequence (P34021 221-878, stated change not applied) above
T3 sequence (P28705 whole entry partner): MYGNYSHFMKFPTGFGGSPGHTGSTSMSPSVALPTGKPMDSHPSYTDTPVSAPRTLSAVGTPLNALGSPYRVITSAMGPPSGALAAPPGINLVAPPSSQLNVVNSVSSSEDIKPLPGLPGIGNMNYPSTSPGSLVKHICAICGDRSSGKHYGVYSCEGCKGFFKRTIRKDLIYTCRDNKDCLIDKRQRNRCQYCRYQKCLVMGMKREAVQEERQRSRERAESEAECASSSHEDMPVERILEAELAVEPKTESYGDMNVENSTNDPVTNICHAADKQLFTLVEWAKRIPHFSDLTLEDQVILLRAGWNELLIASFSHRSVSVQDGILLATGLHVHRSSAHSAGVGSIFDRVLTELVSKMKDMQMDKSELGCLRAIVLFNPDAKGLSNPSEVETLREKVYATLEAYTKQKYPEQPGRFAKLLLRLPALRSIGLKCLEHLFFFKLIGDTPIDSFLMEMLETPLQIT
T3 sequence (Q61026 322-1121 partner limits assumed): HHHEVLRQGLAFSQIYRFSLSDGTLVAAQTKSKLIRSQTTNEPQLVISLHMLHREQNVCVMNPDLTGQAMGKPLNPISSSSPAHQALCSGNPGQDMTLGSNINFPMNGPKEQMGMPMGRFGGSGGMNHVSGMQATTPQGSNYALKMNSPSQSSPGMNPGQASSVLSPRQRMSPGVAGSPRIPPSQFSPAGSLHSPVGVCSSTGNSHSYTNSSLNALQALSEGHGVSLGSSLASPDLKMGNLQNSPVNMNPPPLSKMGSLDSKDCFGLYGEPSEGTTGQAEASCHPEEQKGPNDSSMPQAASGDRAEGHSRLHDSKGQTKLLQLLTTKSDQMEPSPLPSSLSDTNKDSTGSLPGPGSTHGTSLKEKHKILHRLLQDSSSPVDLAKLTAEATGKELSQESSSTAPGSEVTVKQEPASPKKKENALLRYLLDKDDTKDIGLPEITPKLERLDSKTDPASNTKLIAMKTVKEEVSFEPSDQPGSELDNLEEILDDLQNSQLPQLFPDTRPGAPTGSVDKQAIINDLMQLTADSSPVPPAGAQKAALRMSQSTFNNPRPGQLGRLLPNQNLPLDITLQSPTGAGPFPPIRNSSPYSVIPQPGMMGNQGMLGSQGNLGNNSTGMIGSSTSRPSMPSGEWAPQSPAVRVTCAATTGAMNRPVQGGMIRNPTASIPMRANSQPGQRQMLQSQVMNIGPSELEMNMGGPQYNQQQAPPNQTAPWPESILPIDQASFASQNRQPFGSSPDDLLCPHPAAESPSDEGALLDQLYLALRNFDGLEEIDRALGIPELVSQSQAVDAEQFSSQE
T2 sequence (P49880 with tags, fused parts or gaps): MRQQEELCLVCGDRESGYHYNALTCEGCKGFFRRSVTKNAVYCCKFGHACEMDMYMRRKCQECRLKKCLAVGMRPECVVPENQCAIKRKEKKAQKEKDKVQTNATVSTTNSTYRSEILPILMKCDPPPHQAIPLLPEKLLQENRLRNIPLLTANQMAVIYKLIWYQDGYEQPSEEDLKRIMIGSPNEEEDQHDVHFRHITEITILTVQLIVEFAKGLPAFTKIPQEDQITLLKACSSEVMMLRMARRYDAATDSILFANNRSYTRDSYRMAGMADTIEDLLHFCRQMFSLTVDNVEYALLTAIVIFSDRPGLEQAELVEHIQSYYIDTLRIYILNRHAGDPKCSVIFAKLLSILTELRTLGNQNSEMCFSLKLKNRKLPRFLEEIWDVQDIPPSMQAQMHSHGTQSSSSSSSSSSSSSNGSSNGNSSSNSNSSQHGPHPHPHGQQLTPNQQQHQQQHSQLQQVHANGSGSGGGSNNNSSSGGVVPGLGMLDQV
T2 sequence (P28705 whole entry partner): as the sequence (P28705 whole entry partner) above

For `CCc1ccc(C(=O)NN(C(=O)c2cc(C)cc(C)c2)C(C)(C)C)cc1` [RH 5992, tebufenozide], the β-galactosidase activity in experiment [1] is given as 2.323; in experiment [2] it was 2.666; in experiment [3], 1.983; at Dm ΔN EcR + RXRγ + GRIP1, 1.283.
